From the supplement of paper PMC4862054

Tests used:
Conditions in all cases: incubation time: 72 h
BT-549 = assay: normalised response (% of control), CellTiter-Glo; higher = more viable cells (100 = DMSO, 0 = benzethonium chloride kill control)
Procedure: (§1)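 DSRT, 72 h incubation, CellTox Green / CellTiter-Glo readout. Signal is normalised to DMSO and benzethonium chloride controls. Value is the normalised response at the highest dose.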

CAL-120 [1] = assay: as above
Procedure: as §1

CAL-148 = assay: as above
Procedure: as §1

CAL-85-1 = assay: as above
Procedure: as §1

DU-4475 = assay: as above
Procedure: as §1

HCC1143 [2] = assay: as above
Procedure: as §1

HCC1599 = assay: as above
Procedure: as §1

HDQ-P1 = assay: as above
Procedure: as §1

MCF-10A = assay: as above
Procedure: as §1

MDA-MB-231 = assay: as above
Procedure: as §1

MDA-MB-436 [3] = assay: as above
Procedure: as §1

MDA-MB-453 = assay: as above
Procedure: as §1

MFM-223 = assay: as above
Procedure: as §1

CAL-120 [4] = assay: normalised viability (% of control), CellTiter-Blue; higher = more viable cells (about 100 = DMSO control)
Method in brief: (§2)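 Each value is normalised viability at a single listed concentration of the series. Breast cancer cell lines in 384-well plates were incubated 72 h with compound and read by CellTiter-Blue fluorescence at 560/590 nm, with vehicle set to 100 and a positive kill control to 0 on every plate.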

CAL-51 = assay: as above
Method in brief: as §2

HCC1143 [5] = assay: as above
Method in brief: as §2

MDA-MB-436 [6] = assay: as above
Method in brief: as §2

Row | SMILES | normalised response (BT-549) [%] | normalised response (CAL-120 [1]) [%] | normalised response (CAL-148) [%] | normalised response (CAL-85-1) [%] | normalised response (DU-4475) [%] | normalised response (HCC1143 [2]) [%] | normalised response (HCC1599) [%] | normalised response (HDQ-P1) [%] | normalised response (MCF-10A) [%] | normalised response (MDA-MB-231) [%] | normalised response (MDA-MB-436 [3]) [%] | normalised response (MDA-MB-453) [%] | normalised response (MFM-223) [%] | normalised viability (CAL-120 [4]; 1 nM) [%] | normalised viability (CAL-120 [4]; 100 nM) [%] | normalised viability (CAL-120 [4]; 1000 nM) [%] | normalised viability (CAL-51; 0.3 nM) [%] | normalised viability (CAL-51; 3 nM) [%] | normalised viability (CAL-51; 10 nM) [%] | normalised viability (HCC1143 [5]; 1 nM) [%] | normalised viability (HCC1143 [5]; 100 nM) [%] | normalised viability (HCC1143 [5]; 1000 nM) [%] | normalised viability (MDA-MB-436 [6]; 1 nM) [%] | normalised viability (MDA-MB-436 [6]; 100 nM) [%] | normalised viability (MDA-MB-436 [6]; 1000 nM) [%] | normalised viability (CAL-120 [4]; 10 nM) [%] | normalised viability (CAL-120 [4]; 10000 nM) [%] | normalised viability (CAL-51; 30 nM) [%] | normalised viability (CAL-51; 100 nM) [%] | normalised viability (HCC1143 [5]; 10 nM) [%] | normalised viability (HCC1143 [5]; 10000 nM) [%] | normalised viability (MDA-MB-436 [6]; 10 nM) [%] | normalised viability (MDA-MB-436 [6]; 10000 nM) [%]
1 | CN1CC[C@H](c2c(O)cc(O)c3c(=O)cc(-c4ccccc4Cl)oc23)[C@H](O)C1 [Alvocidib] (10000 nM) | 5.51 | 37 | 58.3 | 7.8 | 8.12 | 17 | 13.9 | 26.2 | 7.83 | 3.28 | 20.1 | 18.1 | 10 |  |  |  |  |  |  |  |  |  |  |  |  |  |  |  |  |  |  |  | 
2 | Nc1nc(Cl)nc2c1ncn2[C@H]1C[C@H](O)[C@@H](CO)O1 [Cladribine] (1000 nM) | 39.6 | 79 | 93.6 | 75.5 | 92.9 | 92 | 61.2 | 89.2 | 102 | 88.4 | 77.3 | 126 | 109 |  |  |  |  |  |  |  |  |  |  |  |  |  |  |  |  |  |  |  | 
3 | Nc1ccn([C@@H]2O[C@H](CO)[C@@H](O)[C@@H]2O)c(=O)n1 [Cytarabine] (10000 nM) | 56.6 | 88.1 | 40.2 | 69.3 | 69.6 | 55.9 | 69.8 | 77.4 | 71.3 | 79.6 | 38.7 | 76.4 | 106 |  |  |  |  |  |  |  |  |  |  |  |  |  |  |  |  |  |  |  | 
4 | Cc1c2oc3c(C)ccc(C(=O)N[C@@H]4C(=O)N[C@H](C(C)C)C(=O)N5CCC[C@H]5C(=O)N(C)CC(=O)N(C)[C@@H](C(C)C)C(=O)O[C@@H]4C)c3nc-2c(C(=O)N[C@@H]2C(=O)N[C@H](C(C)C)C(=O)N3CCC[C@H]3C(=O)N(C)CC(=O)N(C)[C@@H](C(C)C)C(=O)O[C@@H]2C)c(N)c1=O [Dactinomycin] (1000 nM) | 1.88 | 33.1 | 52 | 5.09 | 3.22 | 11.3 | 7.78 | 24.8 | 2.65 | 2.02 | 17.1 | 16.7 | 11.9 |  |  |  |  |  |  |  |  |  |  |  |  |  |  |  |  |  |  |  | 
5 | COc1cccc2c1C(=O)c1c(O)c3c(c(O)c1C2=O)C[C@@](O)(C(=O)CO)C[C@@H]3O[C@H]1C[C@H](N)[C@H](O)[C@H](C)O1 [Doxorubicin] (1000 nM) | 14.9 | 43.4 | 1.22 | 17.7 | 0.14 | 46.2 | 33.2 | 46.7 | 44 | 29 | 28.6 | 20.7 | 72.6 |  |  |  |  |  |  |  |  |  |  |  |  |  |  |  |  |  |  |  | 
6 | Cc1ccc(F)c(NC(=O)Nc2ccc(-c3cccc4[nH]nc(N)c34)cc2)c1 [Linifanib] |  |  |  |  |  |  |  |  |  |  |  |  |  | 90.8 | 91.2 | 109 | 106 | 105 | 107 | 112 | 89 | 93.9 | 108 | 110 | 120 |  |  |  |  |  |  |  | 
7 | Cc1ccc(F)c(NC(=O)Nc2ccc(-c3cccc4[nH]nc(N)c34)cc2)c1 [Linifanib] (1000 nM) | 103 | 109 | 118 | 101 | 106 | 108 | 105 | 115 | 106 | 109 | 111 | 110 | 108 |  |  |  |  |  |  |  |  |  |  |  |  |  |  |  |  |  |  |  | 
8 | S=c1[nH]cnc2nc[nH]c12 [Mercaptopurine] (10000 nM) | 94.8 | 27.3 | 85.5 | 79.3 | 56.5 | 101 | 27.5 | 35.9 | 95.3 | 40.7 | 85.8 | 102 | 85.5 |  |  |  |  |  |  |  |  |  |  |  |  |  |  |  |  |  |  |  | 
9 | Clc1ccc(C(c2ccccc2Cl)C(Cl)Cl)cc1 (stereo not drawn) [Mitotane] |  |  |  |  |  |  |  |  |  |  |  |  |  |  |  | 87.8 |  | 117 |  |  |  | 81.2 |  |  | 106 | 80.8 | 86 | 106 | 107 | 82.9 | 91.4 | 88.9 | 90.9
10 | Clc1ccc(C(c2ccccc2Cl)C(Cl)Cl)cc1 (stereo not drawn) [Mitotane] (10000 nM) | 95.6 | 99.2 | 99.1 | 97 | 95.9 | 98.7 | 113 | 99.8 | 102 | 94.9 | 97.4 | 94.9 | 97 |  |  |  |  |  |  |  |  |  |  |  |  |  |  |  |  |  |  |  | 
11 | COc1cccc2cc(-c3nc([C@H]4CC[C@H](C(=O)O)CC4)n4ncnc(N)c34)[nH]c12 [OSI-027] (10000 nM) | 24.8 | 30.1 | 39.2 | 30.1 | 61.2 | 46.5 | 74.2 | 37.5 | 30.5 | 45.7 | 45.6 | 32.2 | 28.5 |  |  |  |  |  |  |  |  |  |  |  |  |  |  |  |  |  |  |  | 
12 | OC[C@H]1O[C@@H](n2cnc3c2N=CNC[C@H]3O)C[C@@H]1O [Pentostatin] |  |  |  |  |  |  |  |  |  |  |  |  |  |  |  | 103 |  | 90.1 |  |  |  | 103 |  |  | 88.4 | 115 | 94.4 | 85.4 | 84.2 | 114 | 102 | 93.4 | 89.5
13 | OC[C@H]1O[C@@H](n2cnc3c2N=CNC[C@H]3O)C[C@@H]1O [Pentostatin] (10000 nM) | 92.5 | 101 | 105 | 99.2 | 99.8 | 99.1 | 108 | 98.1 | 106 | 103 | 96.8 | 110 | 99.3 |  |  |  |  |  |  |  |  |  |  |  |  |  |  |  |  |  |  |  | 
14 | N#CC[C@H](C1CCCC1)n1cc(-c2ncnc3[nH]ccc23)cn1 [Ruxolitinib] (10000 nM) | 101 | 77.7 | 98.2 | 98.5 | 98.4 | 93.3 | 94.4 | 86.3 | 72.5 | 86 | 88.4 | 87.6 | 73.2 |  |  |  |  |  |  |  |  |  |  |  |  |  |  |  |  |  |  |  | 
15 | C=CC[C@@H]1/C=C(\C)C[C@H](C)C[C@H](OC)[C@H]2O[C@@](O)(C(=O)C(=O)N3CCCC[C@H]3C(=O)O[C@H](/C(C)=C/[C@@H]3CC[C@@H](O)[C@H](OC)C3)[C@H](C)[C@@H](O)CC1=O)[C@H](C)C[C@@H]2OC [Tacrolimus] |  |  |  |  |  |  |  |  |  |  |  |  |  |  |  | 103 |  | 108 |  |  |  | 118 |  |  | 104 | 106 | 106 | 103 | 97.7 | 102 | 102 | 116 | 108
16 | C=CC[C@@H]1/C=C(\C)C[C@H](C)C[C@H](OC)[C@H]2O[C@@](O)(C(=O)C(=O)N3CCCC[C@H]3C(=O)O[C@H](/C(C)=C/[C@@H]3CC[C@@H](O)[C@H](OC)C3)[C@H](C)[C@@H](O)CC1=O)[C@H](C)C[C@@H]2OC [Tacrolimus] (10000 nM) | 90.8 | 105 | 103 | 99.6 | 103 | 86.8 | 119 | 103 | 103 | 91.5 | 98 | 101 | 81.2 |  |  |  |  |  |  |  |  |  |  |  |  |  |  |  |  |  |  |  | 
17 | C=CCNC1=C2C[C@@H](C)C[C@H](OC)[C@H](O)[C@@H](C)/C=C(\C)[C@H](OC(N)=O)[C@@H](OC)/C=C\C=C(/C)C(=O)NC(=CC1=O)C2=O [Tanespimycin] (10000 nM) | 35.5 | 42.3 | 25 | 21.2 | -0.09 | 32.6 | 54.5 | 20.7 | 14 | 15.5 | 41.8 | 28.6 | 38.1 |  |  |  |  |  |  |  |  |  |  |  |  |  |  |  |  |  |  |  | 
18 | C[C@]1(c2nc3c(C(N)=O)cccc3[nH]2)CCCN1 [Veliparib] |  |  |  |  |  |  |  |  |  |  |  |  |  |  |  | 77 |  | 114 |  |  |  | 76.4 |  |  | 89.1 | 81.7 | 70.2 | 105 | 106 | 66.6 | 75.3 | 83.3 | 84.6
19 | C[C@]1(c2nc3c(C(N)=O)cccc3[nH]2)CCCN1 [Veliparib] (10000 nM) | 95.7 | 93.1 | 99.2 | 104 | 96.8 | 91.6 | 77.1 | 102 | 97.3 | 93.3 | 94.5 | 121 | 97.3 |  |  |  |  |  |  |  |  |  |  |  |  |  |  |  |  |  |  |  | 
20 | CC[C@]1(O)C[C@@H]2CN(CCc3c([nH]c4ccccc34)[C@@](C(=O)OC)(c3cc4c(cc3OC)N(C)[C@H]3[C@@](O)(C(=O)OC)[C@H](OC(C)=O)[C@]5(CC)C=CCN6CC[C@]43[C@@H]65)C2)C1 [Vinblastine] (1000 nM) | 34.3 | 59.1 | 55.3 | 50.3 | 37.8 | 50.2 | 12.6 | 70.6 | 71.6 | 43.4 | 22.6 | 64.7 | 44.6 |  |  |  |  |  |  |  |  |  |  |  |  |  |  |  |  |  |  |  | 
21 | CS(=O)(=O)c1ccc(C(=O)Nc2ccc(Cl)c(-c3ccccn3)c2)c(Cl)c1 [Vismodegib] (10000 nM) | 102 | 99.3 | 86.5 | 103 | 97.8 | 89.9 | 88.8 | 91.7 | 93.9 | 98 | 96.8 | 87.9 | 91.4 |  |  |  |  |  |  |  |  |  |  |  |  |  |  |  |  |  |  |  | 
